Assay results: patent US10000765B2, “Gene encoding cytochrome P450, and use thereof” (NATIONAL INSTITUTE OF AGROBIOLOGICAL SCIENCES, priority 2011, dated 2018)

Assays:
[1] = system: Arabidopsis thaliana (K31-4-2) transformed with a Kasalath-derived CYP72A31 gene; assay: Drug sensitivity test on drug-containing MS medium, Arabidopsis thaliana transformed with Kasalath-derived CYP72A31 gene; assay type: in vivo; details: for Rate of emerging of true leaf (%): day 14 after seeding
Procedure: (§1) A bag of mixed salts for Murashige-Skoog (MS) medium (manufactured by Wako Pure Chemical Industries, Ltd.) 20 g of sucrose, 3 mg of thiamin hydrochloride, 5 mg of nicotinic acid, and 0.5 mg of pyridoxine hydrochloride were dissolved in distilled water, and filled up to 1 L with distilled water. After pH adjustment to 5.8 to 6.3 with 1 M KOH, 3 g of Gelrite was added to the solution, and dissolved using a microwave. After that, the mixture was autoclaved to prepare a sterile MS medium. A test drug was added to this sterile MS medium so as to make a final concentration of 1.3, 4.1, 12, 37, 110, or 330 nM. Arabidopsis thaliana from a sterilized seed was seeded in the drug-containing MS medium, and cultivated at 22° C. for 12 to 14 days in a continuous light period.
(§2) Note that the drugs used in this Example were bispyribac-sodium, pyrithiobac-sodium, pyriminobac, bensulfuron-methyl, penoxsulam, pyrazosulfuron-ethyl, amidosulfuron, imazosulfuron, nicosulfuron, and propyrisulfuron.

[2] = system: non-transformed Arabidopsis thaliana (NT); assay: Drug sensitivity test on drug-containing MS medium, non-transformed Arabidopsis thaliana; assay type: in vivo
Procedure: as §1, §2

[3] = system: Wild-type rice (Nipponbare); assay: Drug sensitivity test on gellan gum medium, wild-type rice; assay type: in vivo, Oryza sativa; details: plant height compared with drug-free medium
Procedure: (§3) Next, 1.6 g of Hoagland's mix (Sigma-Aldrich Corporation) and 3 g of Gelrite (Wako Pure Chemical Industries, Ltd.) were suspended in 1 L of distilled water. Then, the mixture was dissolved and heated in a microwave. After that, the mixture was cooled to 50 to 60 degree C., and BS was added at a final concentration of 1 μM. This mixture was dispensed into 30-mL tubular bottles at 15 mL to prepare a gellan gum medium. Next, CSSL rice paddies were soaked in 0.5% sodium hypochlorite for about 20 minutes, and were then washed well with water. These paddies were soaked in distilled water, and kept at 27 degree C. for 3 to 5 days for germination. Germinating seeds were softly planted in sprout-side up on the gellan gum medium. These samples, together with a beaker filled with distilled water, were placed in a transparent case, which was then covered with a clear-plastic wrap. These samples were grown at 27 degree C. under fluorescent light illumination (14 hours of a light period and 10 hours of a dark period) for 7 to 9 days.
(§4) According to the method of Example 1, a gellan gum medium containing a test drug at a concentration of 0.01, 0.1, 1, or 10 μM was prepared. Rice seeds were sterilized, germinated, seeded in the medium, and cultivated.

[4] = system: CYP72A31-overexpressing rice (K31-4-6-2); assay: Drug sensitivity test on gellan gum medium, CYP72A31-overexpressing rice; assay type: in vivo, Oryza sativa; details: for CK ratio (%): plant height compared with drug-free medium
Procedure: as §3, §4

[5] = drug 1.3 nM, day 14 after seeding
[6] = drug 4.1 nM, day 14 after seeding
[7] = drug 12 nM, day 14 after seeding
[8] = drug 37 nM, day 14 after seeding
[9] = drug 110 nM, day 14 after seeding
[10] = drug 330 nM, day 14 after seeding
[11] = K31-4-2, Tables 2 and 3, FIGS. 20 to 24
[12] = maximum drug concentration for 80% or more emerging of true leaves, K31-4-2 / NT, day 14

Compound | Ratio of sensitivity ([1]; in vivo) | Resistance of transformed Arabidopsis thaliana to the drug ([1]; in vivo) | Rate of emerging of true leaf (%) [2, 5] [%] | Rate of emerging of true leaf (%) [2, 6] [%] | Rate of emerging of true leaf (%) [2, 7] [%] | Rate of emerging of true leaf (%) [2, 8] [%] | Rate of emerging of true leaf (%) [2, 9] [%] | Rate of emerging of true leaf (%) [2, 10] [%] | Resistance of transformed Arabidopsis thaliana to the drug [1, 11] | Rate of emerging of true leaf (%) ([1]; K31-4-2, drug 1.3 nM) | Rate of emerging of true leaf (%) ([1]; K31-4-2, drug 4.1 nM) | Rate of emerging of true leaf (%) ([1]; K31-4-2, drug 12 nM) | Rate of emerging of true leaf (%) ([1]; K31-4-2, drug 37 nM) | Rate of emerging of true leaf (%) ([1]; K31-4-2, drug 110 nM) | Rate of emerging of true leaf (%) ([1]; K31-4-2, drug 330 nM) | Ratio of sensitivity [1, 12] | also measured
COc1cc(OC)nc(NC(=O)NS(=O)(=O)N(C)S(C)(=O)=O)n1 [Amidosulfuron, amidosulfuron] | 3 | exhibited resistance | 100 | 100 | 0 | 0 | 0 | 0 |  |  |  |  |  |  |  |  | 
COC(=O)c1ccccc1CS(=O)(=O)NC(=O)Nc1nc(OC)cc(OC)n1 [Bensulfuron-methyl, bensulfuron-methyl] | >28 | exhibited resistance | 30 | 0 | 0 | 0 | 0 | 0 |  |  |  |  |  |  |  |  | 
COc1cc(OC)nc(NC(=O)NS(=O)(=O)c2c(Cl)nc3ccccn23)n1 [Imazosulfuron, imazosulfuron] |  |  | 40 | 10 | 0 | 0 | 0 | 0 | exhibited resistance | 100 | 100 | 100 | 100 | 90 | 0 | >85 | 
COc1cc(OC)nc(NC(=O)NS(=O)(=O)c2ncccc2C(=O)N(C)C)n1 [Nicosulfuron, nicosulfuron] |  |  | 100 | 100 | 0 | 0 | 0 | 0 | exhibited resistance | 100 | 100 | 100 | 100 | 100 | 10 | 27 | 
COc1cnc(OC)n2nc(NS(=O)(=O)c3c(OCC(F)F)cccc3C(F)(F)F)nc12 [Penoxsulam, penoxsulam] | >254 | exhibited resistance | 50 | 10 | 0 | 0 | 0 | 0 |  |  |  |  |  |  |  |  | 
CCc1cc(C)cc(CC)c1-c1c(OC(=O)C(C)(C)C)n2n(c1=O)CCOCC2 [Pinoxaden, pinoxaden] |  |  |  |  |  |  |  |  |  |  |  |  |  |  |  |  | CK ratio (%) ([3]; drug 0.01 μM): 59%; CK ratio (%) ([3]; drug 0.1 μM): 3%; CK ratio (%) ([3]; drug 1 μM): 3%; CK ratio (%) ([3]; drug 10 μM): 3%; Resistance of transformed rice to the drug ([4]; Table 4 and FIG. 25): exhibited resistance; Ratio of sensitivity ([4]; maximum drug concentration for CK ratio of 40% or more, K31-4-6-2 / wild-type rice): 10; CK ratio (%) ([4]; K31-4-6-2, drug 0.01 μM): 95%; CK ratio (%) ([4]; K31-4-6-2, drug 0.1 μM): 48%; CK ratio (%) ([4]; K31-4-6-2, drug 1 μM): 9%; CK ratio (%) ([4]; K31-4-6-2, drug 10 μM): 3%
CCCc1ccc2nc(Cl)c(S(=O)(=O)NC(=O)Nc3nc(OC)cc(OC)n3)n2n1 [Propyrisulfuron, propyrisulfuron] |  |  | 10 | 0 | 0 | 0 | 0 | 0 | exhibited resistance | 100 | 100 | 100 | 70 | 0 | 0 | >9 | 
CCOC(=O)c1cnn(C)c1S(=O)(=O)NC(=O)Nc1nc(OC)cc(OC)n1 [Pyrazosulfuron-ethyl, pyrazosulfuron-ethyl] |  |  | 0 | 0 | 0 | 0 | 0 | 0 | exhibited resistance | 100 | 100 | 90 | 0 | 0 | 0 | >9 | 
CON=C(C)c1cccc(Oc2nc(OC)cc(OC)n2)c1C(=O)O [Pyriminobac, pyriminobac] |  |  | 100 | 90 | 10 | 0 | 0 | 0 | exhibited resistance | 100 | 100 | 100 | 100 | 100 | 50 | 27 | 
COc1cc(OC)nc(Sc2cccc(Cl)c2C(=O)O)n1 [Pyrithiobac-sodium, pyrithiobac-sodium] | 3 | exhibited resistance |  |  |  |  |  |  |  |  |  |  |  |  |  |  | Rate of emerging of true leaf (%) ([2]; drug 1.3 nM, day 12 after seeding): 44%; Rate of emerging of true leaf (%) ([2]; drug 4.1 nM, day 12 after seeding): 44%; Rate of emerging of true leaf (%) ([2]; drug 12 nM, day 12 after seeding): 0%; Rate of emerging of true leaf (%) ([2]; drug 37 nM, day 12 after seeding): 0%; Rate of emerging of true leaf (%) ([2]; drug 110 nM, day 12 after seeding): 0%; Rate of emerging of true leaf (%) ([2]; drug 330 nM, day 12 after seeding): 0%
